Data taken from article PMC5562448 (Chembiochem : a European journal of chemical biology, 2017).

Legend:
HSPA1A = HSPA1A (Homo sapiens, UniProt P0DMV8); test: isothermal titration calorimetry; format: binding; conditions: n=0.9
HSPA8 = HSPA8 (Homo sapiens, UniProt P11142); test: isothermal titration calorimetry; format: binding; conditions: n=1.1
Sequence of HSPA8 (P11142 2-646): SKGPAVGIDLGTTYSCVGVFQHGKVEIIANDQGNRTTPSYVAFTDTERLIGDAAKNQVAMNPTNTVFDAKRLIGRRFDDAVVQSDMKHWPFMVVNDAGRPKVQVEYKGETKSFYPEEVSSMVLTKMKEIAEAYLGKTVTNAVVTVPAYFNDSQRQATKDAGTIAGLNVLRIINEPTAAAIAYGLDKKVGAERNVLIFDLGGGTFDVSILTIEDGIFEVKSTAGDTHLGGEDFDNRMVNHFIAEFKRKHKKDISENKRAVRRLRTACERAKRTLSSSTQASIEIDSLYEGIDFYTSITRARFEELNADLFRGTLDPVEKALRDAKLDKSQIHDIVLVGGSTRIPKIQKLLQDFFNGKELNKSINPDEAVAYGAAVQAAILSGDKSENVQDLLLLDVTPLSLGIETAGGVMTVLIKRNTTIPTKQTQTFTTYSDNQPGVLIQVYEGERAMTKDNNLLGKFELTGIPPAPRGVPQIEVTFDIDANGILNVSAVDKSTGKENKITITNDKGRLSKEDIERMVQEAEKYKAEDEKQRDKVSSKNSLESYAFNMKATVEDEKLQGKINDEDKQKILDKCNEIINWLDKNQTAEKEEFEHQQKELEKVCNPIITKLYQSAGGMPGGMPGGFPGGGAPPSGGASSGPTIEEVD

Sequence of HSPA1A (P0DMV8 2-641): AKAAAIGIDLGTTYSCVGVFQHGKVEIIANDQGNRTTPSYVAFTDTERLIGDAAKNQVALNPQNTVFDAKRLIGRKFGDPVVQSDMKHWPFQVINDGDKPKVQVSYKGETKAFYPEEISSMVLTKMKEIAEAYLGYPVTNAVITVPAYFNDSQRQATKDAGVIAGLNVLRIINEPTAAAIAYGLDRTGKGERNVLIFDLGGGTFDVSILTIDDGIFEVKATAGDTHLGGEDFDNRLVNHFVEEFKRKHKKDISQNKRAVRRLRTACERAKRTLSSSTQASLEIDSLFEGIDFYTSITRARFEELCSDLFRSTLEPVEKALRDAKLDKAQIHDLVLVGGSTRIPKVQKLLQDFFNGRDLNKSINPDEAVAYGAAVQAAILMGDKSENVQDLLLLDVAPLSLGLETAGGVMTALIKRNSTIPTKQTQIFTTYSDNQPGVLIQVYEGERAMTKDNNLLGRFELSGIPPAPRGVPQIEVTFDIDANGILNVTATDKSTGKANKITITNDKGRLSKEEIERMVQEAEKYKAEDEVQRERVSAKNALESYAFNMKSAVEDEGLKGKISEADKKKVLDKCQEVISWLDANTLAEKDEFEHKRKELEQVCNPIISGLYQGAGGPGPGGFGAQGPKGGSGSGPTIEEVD

## C[C@@H]1[C@]2(O[C@H]3C=C4[C@@H]5CC[C@H]6Cc7nc8c(nc7C[C@]6(C)[C@H]5C[C@@H](O)[C@]4(C)[C@]31O)C[C@@H]1CC[C@H]3C4=C[C@@H]5O[C@]6(CCC(C)(C)O6)[C@@H](C)[C@@H]5[C@@]4(C)[C@H](O)C[C@@H]3[C@@]1(C)C8)O[C@](C)(CO)C[C@H]2O [compound 3, ritterostatin GN1N]
HSPA1A
  Kd: 625 nM
HSPA8
  Kd: 1630 nM
